Experimental data published in patent publication US20170042915A1, “LPA RECEPTOR MODULATORS FOR BROWN FAT DIFFERENTIATION” (The California Institute for Biomedical Research, priority 2015, published 2017).

Legend:
[1] = system: Human Simpson-Golabi-Behmel syndrome (SGBS) preadipocytes; assay: Brown cell differentiation of SGBS preadipocytes, high content imaging with anti-UCP1 and LipidTox staining; format: cell-based; conditions: concentration not given; for % Brown (adipocytes): day 11, LipidTox and UCP1 positive; for % White (adipocytes): day 11, LipidTox positive, below UCP1 threshold; for UCP1 fold: day 11, UCP1 staining
Procedure: OF Media included 1% Anti-Anti, […] biotin, […] panthotenate, and DMEM:F12 (1:1) media. Growth media included OF Media and 10% Fetal Bovine Serum. Differentiation induction media included OF Media, 10 μg/mL Insulin, 0.5 mM IBMX, and 1 μM Dexamethasone. The maintenance media included OF media and 10 μg/mL Insulin.
Human Simpson-Golabi-Behmel syndrome (SGBS) preadipocyteswere cultured in T225 flasks containing Growth Media. Upon passaging, cells were trypsinized, collected, spun down at 1250 g for 5 minutes at 20° C. to pellet. Cells were then resuspended in growth media before seeding cells at optimal density to maintain 75-80% confluency before passaging every 3-4 days.
Compounds at varying concentrations (starting at 20 uM with 1:3 dilution) were spotted onto 384-well black clear bottom plates (Greiner). The negative control consisted of DMSO while positive controls contained 2 uM of Rosiglitazone (Cayman). 50 μL of SGBS cells in induction were seeded directly on top of compound at a concentration of 1.1×10^5 cells/mL (˜5500 cells/well). After 4 days of induction, media was changed to 50 μL of maintenance media. Every 2-4 days after, media was changed again with 50 μL maintenance media until day 11.
After 11 days of differentiation, cells were fixed with 10 μL of 32% Paraformaldehyde for 10 minutes, followed by 10 μL of 7% Triton X-100 for another 10 minutes. Media was then aspirated down to 5 μL, 25 μL of Blocking Buffer 1 (2% BSA and 2.5% goat serum) was added, and plates were incubated for 1 hour. Plates were then aspirated down to 5 μL and 25 μL of primary antibody was added for 16 hour incubation. Primary antibody containing UCP1 (Sigma; Rabbit; 1:100) was diluted in Blocking Buffer 2 (2% BSA).
The next day, plates were washed 3 times with 1× PBS and 25 μL of secondary antibody were added. Secondary antibody containing Hoechst (1:6000), Alex Fluor 647 goat Anti-Rabbit (1:1000), and HCS LipidTOX Green Neutral Lipid Stain (Life Technologies; 1:800) were diluted in Blocking Buffer 2 (2% BSA). After 1 hour of incubation at room temperature, plates were washed 3 times with 1× PBS and left in 50 μL of PBS. Plates were then sealed and imaged.
Plates were imaged using CellInsight CX5 High Content Screening (HCS) Platform. Total cell number was detected using Hoechstand images were used to quantify total adipocytes (met defined threshold of lipidtox staining intensity).

[2] = system: SGBS preadipocytes; assay: Brown adipocyte differentiation of SGBS preadipocytes with or without exogenous LPA; format: cell-based, human; conditions: day 11 SGBS adipocytes, compound during days 3-4 of induction, 10 μM LPA during days 1-4; FIG. 6A
Procedure: SGBS preadipocytes were plated in 384 plates as previously described but using induction media with or without the addition of 10 μM lysophosphatidic acid (LPA) for the first 2 days. On day 3, cells were treated with 10 μL of 6× concentration of compound 19 (final concentration was a 1:3 serial dilution starting at 20 μM) again with or without the addition of LPA. On day 5, media was changed to maintenance media until day 11. Staining and analysis of brown adipocytes based on UCP1 and lipid performed as described previously.

| Structure (SMILES) | % Brown (adipocytes) ([1]; 1st of 3 sub-columns) | % Brown (adipocytes) ([1]; 2nd of 3 sub-columns) | % Brown (adipocytes) ([1]; 3rd of 3 sub-columns) | % White (adipocytes) ([1]; 1st of 3 sub-columns) | % White (adipocytes) ([1]; 2nd of 3 sub-columns) | % White (adipocytes) ([1]; 3rd of 3 sub-columns) | UCP1 fold ([1]; 1st of 3 sub-columns) | UCP1 fold ([1]; 2nd of 3 sub-columns) | UCP1 fold ([1]; 3rd of 3 sub-columns) | induction of brown adipocyte differentiation in the presence of exogenous LPA [2] |
| --- | --- | --- | --- | --- | --- | --- | --- | --- | --- | --- |
| Cc1ccc(CNC(=O)C2CCN(S(=O)(=O)c3cc(-c4noc(C5CC5)n4)sc3C)CC2)o1 [Compound 1] | 15% | 27% | 30% | 6% | 3% | 4% | 1.2x | 2.6x | 2.7x | – |
| Cc1nc(-c2cc(S(=O)(=O)N3CCC(C(=O)NCCc4cccs4)CC3)c(C)s2)no1 [Compound 2] | 29% | 34% | 34% | 9% | 8% | 7% | 2.2x | 2.8x | 2.9x | – |
| Cc1nn(-c2ccccc2)c(C)c1S(=O)(=O)N1CCC(C(=O)NCCc2cccs2)CC1 [Compound 3] | 20% | 28% | 30% | 10% | 8% | 5% | 1.6x | 2.1x | 2.9x | – |
| Cc1sc(-c2noc(C3CCC3)n2)cc1S(=O)(=O)N1CCC(C(=O)NCc2ccco2)CC1 [Compound 4] | 17% | 22% | 30% | 5% | 7% | 5% | 1.5x | 1.6x | 2.6x | – |
| Cc1sc(-c2noc(C(C)C)n2)cc1S(=O)(=O)N1CCC(C(=O)NCc2cccs2)CC1 [Compound 5] | 18% | 22% | 28% | 3% | 7% | 7% | 1.8x | 1.8x | 2.2x | – |
| Cc1sc(-c2noc(C(C)C)n2)cc1S(=O)(=O)N1CCC(C(=O)N(C)Cc2ccco2)CC1 [Compound 6] | 14% | 23% | 29% | 6% | 6% | 5% | 1.2x | 1.7x | 2.4x | – |
| Cc1ccc(C)c(-c2csc(Nc3ccc(S(=O)(=O)Nc4cc(C)on4)cc3)n2)c1 [Compound 9] | 18% | 21% | 31% | 5% | 6% | 6% | 1.5x | 1.9x | 2.7x | – |
| COC(=O)c1ccc(NS(=O)(=O)c2ccc(-c3c(C)noc3C)cc2)cc1 [Compound 10] | 17% | 21% | 29% | 6% | 8% | 10% | 1.5x | 1.5x | 2.0x | – |
| Cc1ccc(NS(=O)(=O)c2ccc(-c3c(C)noc3C)cc2)cc1Cl [Compound 11] | 18% | 22% | 24% | 4% | 6% | 11% | 1.7x | 1.8x | 1.7x | – |
| COC(=O)CCSCc1ccc(-c2onc(C)c2NC(=O)OC(C)c2ccccc2Cl)cc1 (stereo not shown) [Compound 19] | – | – | – | – | – | – | – | – | – | attenuated induction of brown adipocyte differentiation |
